Earlier results on 1 substance are cited in patent publication US8808735B2, “Fast wet-massing method for the preparation of calcium-containing compositions” (Takeda Nycomed AS, priority 2005, dated 2014).

This data set relates to fracture rate. The following applies: annual injections of 150.000-300.000 IU.

Regarding vitamin D, the overall fracture rate entry was “significant reduction”.
